Counter-ions that a name gives are not always drawn.
How the values were obtained:
[1] = target: T1, Adrenergic β2 (Homo sapiens, UniProt P07550); assay: Adrenergic β2 mediated cAMP production in H292 cells (AlphaScreen cAMP detection); assay type: cell-based; conditions: for β2 Int Act: Intrinsic Activity, fraction relative to the maximum activity determined for formoterol; for EC50: cAMP production, 60 min at room temperature, 300 μM rolipram, read-out: β2 pEC50 (converted)
T1 construct: Adherent H292 cells were removed from tissue culture flasks; endogenous in cells; host or cells: H292 cells
T1 sequence (P07550 whole entry): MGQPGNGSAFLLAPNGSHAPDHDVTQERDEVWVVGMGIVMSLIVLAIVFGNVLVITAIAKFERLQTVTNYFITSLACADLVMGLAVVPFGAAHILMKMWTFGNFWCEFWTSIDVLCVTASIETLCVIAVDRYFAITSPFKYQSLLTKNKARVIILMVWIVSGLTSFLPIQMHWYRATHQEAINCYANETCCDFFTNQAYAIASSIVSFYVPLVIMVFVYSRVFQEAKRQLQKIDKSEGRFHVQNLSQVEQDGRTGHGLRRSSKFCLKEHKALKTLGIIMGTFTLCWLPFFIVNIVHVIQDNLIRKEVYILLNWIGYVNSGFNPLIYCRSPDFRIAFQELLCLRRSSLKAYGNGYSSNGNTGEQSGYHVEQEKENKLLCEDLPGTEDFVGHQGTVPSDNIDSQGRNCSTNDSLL
Procedure: H292 cells were grown in 225 cm2 flasks incubator at 37° C., 5% CO2 in RPMI medium containing, 10% (v/v) FBS (foetal bovine serum) and 2 mM L-glutamine.
Adherent H292 cells were removed from tissue culture flasks by treatment with Accutase™ cell detachment solution for 15 min. Flasks were incubated for 15 min in a humidified incubator at 37° C., 5% CO2. Detached cells were re-suspended in RPMI media (containing 10% (v/v) FBS and 2 mM L-glutamine) at […]. 10000 cells in 100 μl were added to each well of a tissue-culture-treated 96-well plate and the cells incubated overnight in a humidified incubator at 37° C., 5% CO2. The culture media was removed and cells were washed twice with 100 μl assay buffer and replaced with 50 μL assay buffer (HBSS solution containing 10 mM HEPES pH7.4 and 5 mM glucose). Cells were rested at room temperature for 20 min after which time 25 μl of rolipram (1.2 mM made up in assay buffer containing 2.4% (v/v) dimethylsulphoxide) was added. Cells were incubated with rolipram for 10 min after which time test compounds were added and the cells were incubated for 60 min at room temperature. The final rolipram concentration in the assay was 300 μM and final vehicle concentration was 1.6% (v/v) dimethylsulphoxide. The reaction was stopped by removing supernatants, washing once with 100 μL assay buffer and replacing with 50 μL lysis buffer. The cell monolayer was frozen at −80° C. for 30 min (or overnight).
AlphaScreen™ cAMP Detection
The concentration of cAMP (cyclic adenosine monophosphate) in the cell lysate was determined using AlphaScreen™ methodology. The frozen cell plate was thawed for 20 min on a plate shaker then 10 μl of the cell lysate was transferred to a 96-well white plate. 40 μL of mixed AlphaScreen™ detection beads pre-incubated with biotinylated cAMP, was added to each well and the plate incubated at room temperature for 10 h in the dark. The AlphaScreen™ signal was measured using an EnVision spectrophotometer (Perkin-Elmer Inc.) with the recommended manufacturer's settings. cAMP concentrations were determined by reference to a calibration curve determined in the same experiment using standard cAMP concentrations. Concentration response curves for agonists were constructed and data was fitted to a four parameter logistic equation to determine both the pEC50 and Intrinsic Activity. Intrinsic Activity was expressed as a fraction relative to the maximum activity determined for formoterol in each experiment.

[2] = target: T2, recombinant human α1D receptor (Homo sapiens, UniProt P25100); assay: Adrenergic α1D selectivity binding assay ([3H]-prazosin); conditions: inhibition of [3H]-prazosin binding, HEK293 membranes, read-out: α1 bind pIC50 (converted)
T2 construct: expressed in transfected cells; host or cells: HEK293
T2 sequence (P25100 1-572): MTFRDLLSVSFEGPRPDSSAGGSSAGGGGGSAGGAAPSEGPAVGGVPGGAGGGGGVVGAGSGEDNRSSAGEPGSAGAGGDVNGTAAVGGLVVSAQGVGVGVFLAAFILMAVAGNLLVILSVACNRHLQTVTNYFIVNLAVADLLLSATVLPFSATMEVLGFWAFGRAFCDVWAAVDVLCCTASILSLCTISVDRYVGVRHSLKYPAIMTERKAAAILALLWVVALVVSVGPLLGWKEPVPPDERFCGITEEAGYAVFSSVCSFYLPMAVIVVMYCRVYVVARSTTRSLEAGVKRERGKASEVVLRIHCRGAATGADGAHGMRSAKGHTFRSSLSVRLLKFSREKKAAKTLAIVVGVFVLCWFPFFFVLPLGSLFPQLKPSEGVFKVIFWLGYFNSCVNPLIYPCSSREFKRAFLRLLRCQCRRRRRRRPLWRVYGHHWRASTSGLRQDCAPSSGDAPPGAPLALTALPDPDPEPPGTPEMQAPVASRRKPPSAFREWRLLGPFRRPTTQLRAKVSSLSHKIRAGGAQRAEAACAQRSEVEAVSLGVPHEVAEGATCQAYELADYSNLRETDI
Procedure: Membranes were prepared from human embryonic kidney 293 (HEK293) cells expressing recombinant human α1D receptor. These were diluted in Assay Buffer (50 mM HEPES, 1 mM EDTA, pH 7.4) to provide a final concentration of membranes that gave a clear window between maximum and minimum specific binding.
(§1) Assays were performed in U-bottomed 96-well polypropylene plates. 10 μl [^3H]-prazosin (0.3 nM final concentration) and 10 μl of test compound (10× final concentration) were added to each test well. For each assay plate 8 replicates were obtained for [^3H]-prazosin binding in the presence of 10 μl vehicle (10% (v/v) DMSO in Assay Buffer; defining maximum binding) or 10 μL BMY7378 (10 μM final concentration; defining non-specific binding (NSB)). Membranes were then added to achieve a final volume of 100 μL. The plates were incubated for 2 h at room temperature and then filtered onto PEI coated GF/B filter plates, pre-soaked for 1 h in Assay Buffer, using a 96-well plate Tomtec cell harvester. Five washes with 250 μl wash buffer (50 mM HEPES, 1 mM EDTA, pH 7.4) were performed at 4° C. to remove unbound radioactivity. The plates were dried then sealed from underneath using Packard plate sealers and MicroScint-O (50 μl) was added to each well. The plates were sealed (TopSeal A) and filter-bound radioactivity was measured with a scintillation counter (TopCount, Packard BioScience) using a 3-minute counting protocol.
(§2) Total specific binding (B0) was determined by subtracting the mean NSB from the mean maximum binding. NSB values were also subtracted from values from all other wells. […] Data was fitted to a four parameter logistic equation to determine the compound potency, which was expressed as pIC50 (negative log molar concentration inducing 50% inhibition of [^3H]-prazosin binding).

[3] = target: T3, recombinant human adrenergic beta 1 receptors (Homo sapiens, UniProt P08588); assay: Adrenergic β1 selectivity binding assay ([125I]-Iodocyanopindolol); conditions: inhibition of [125I]-Iodocyanopindolol binding, human β1 membranes; read-out: β1 bind p IC50 (converted)
T3 construct: purchased Euroscreen
T3 sequence (P08588 whole entry): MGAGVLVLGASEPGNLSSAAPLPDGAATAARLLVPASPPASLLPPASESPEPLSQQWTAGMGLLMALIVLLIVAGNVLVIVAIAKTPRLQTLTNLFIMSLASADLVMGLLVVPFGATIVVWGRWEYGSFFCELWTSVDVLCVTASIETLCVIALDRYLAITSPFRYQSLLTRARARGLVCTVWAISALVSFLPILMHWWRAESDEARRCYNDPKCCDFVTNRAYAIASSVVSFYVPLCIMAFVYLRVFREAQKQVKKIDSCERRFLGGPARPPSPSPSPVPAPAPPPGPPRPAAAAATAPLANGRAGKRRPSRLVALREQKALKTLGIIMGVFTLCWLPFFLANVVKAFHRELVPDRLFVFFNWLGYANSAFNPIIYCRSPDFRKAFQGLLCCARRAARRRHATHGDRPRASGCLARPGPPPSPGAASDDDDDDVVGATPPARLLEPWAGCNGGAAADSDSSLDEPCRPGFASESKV
Procedure: (§3) Membranes containing recombinant human adrenergic beta 1 receptors were obtained from Euroscreen. These were diluted in Assay Buffer (50 mM HEPES, 1 mM EDTA, 120 mM NaCl, 0.1% gelatin, pH 7.4) to provide a final concentration of membranes that gave a clear window between maximum and minimum specific binding.
as §1, with “plates. 10 μL [^125I]-Iodocyanopindolol (0.036 nM final” for “plates. 10 μl [^3H]-prazosin (0.3 nM final”, “and 10 μL of test” for “and 10 μl of test”, “obtained for [^125I]-Iodocyanopindolol binding in” for “obtained for [^3H]-prazosin binding in”, “or 10 μl Propranolol (10 μM” for “or 10 μL BMY7378 (10 μM”, “with 250 μL wash buffer” for “with 250 μl wash buffer”, “mM EDTA, 120 mM NaCl, pH 7.4)” for “mM EDTA, pH 7.4)”
as §2, with “[^125I]-Iodocyanopindolol” for “[^3H]-prazosin”

[4] = target: T4, recombinant human Dopamine Subtype D2s receptors (Homo sapiens, UniProt P14416); assay: Dopamine D2 selectivity binding assay ([3H]-spiperone); conditions: inhibition of [3H]-spiperone binding, human D2s membranes; read-out: D2 bind pIC50 (converted)
T4 construct: purchased Perkin Elmer
T4 sequence (P14416 1-414 isoform P14416-2): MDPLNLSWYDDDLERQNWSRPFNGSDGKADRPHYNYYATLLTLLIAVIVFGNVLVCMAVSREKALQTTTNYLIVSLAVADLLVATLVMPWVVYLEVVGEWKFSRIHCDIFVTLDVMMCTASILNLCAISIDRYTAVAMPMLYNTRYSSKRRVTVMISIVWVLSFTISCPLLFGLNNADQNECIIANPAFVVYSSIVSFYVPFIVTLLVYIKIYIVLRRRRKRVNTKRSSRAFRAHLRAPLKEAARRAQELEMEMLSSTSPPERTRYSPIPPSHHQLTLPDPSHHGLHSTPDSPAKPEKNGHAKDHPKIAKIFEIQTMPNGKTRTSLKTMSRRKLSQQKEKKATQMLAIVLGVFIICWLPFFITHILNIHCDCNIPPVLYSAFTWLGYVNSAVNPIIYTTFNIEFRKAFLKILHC
Procedure: as §3, with “Dopamine Subtype D2s” for “adrenergic beta 1”, “Perkin Elmer.” for “Euroscreen.”
Assays were performed in U-bottomed 96-well polypropylene plates. 30 μL [^3H]-spiperone (0.16 nM final concentration) and 30 μl of test compound (10× final concentration) were added to each test well. For each assay plate 8 replicates were obtained for [^3H]-spiperone binding in the presence of 30 μL vehicle (10% (v/v) DMSO in Assay Buffer; defining maximum binding) or 30 μl Haloperidol (10 μM final concentration; defining non-specific binding (NSB)). Membranes were then added to achieve a final volume of 300 μL. The plates were incubated for 2 h at room temperature and then filtered onto PEI coated GF/B filter plates, pre-soaked for 1 h in Assay Buffer, using a 96-well plate Tomtec cell harvester. Five washes with 250 μl wash buffer (50 mM HEPES, 1 mM EDTA, 120 mM NaCl, pH 7.4) were performed at 4° C. to remove unbound radioactivity. The plates were dried then sealed from underneath using Packard plate sealers and MicroScint-O (50 μl) was added to each well. The plates were sealed (TopSeal A) and filter-bound radioactivity was measured with a scintillation counter (TopCount, Packard BioScience) using a 3-minute counting protocol.
as §2, with “[^3H]-spiperone” for “[^3H]-prazosin”

SMILES | β2 Int Act [1] | EC50 [1] | IC50 [2] | IC50 [3] | IC50 [4]
CCCn1cc(-c2cccc(CCOCCC(=O)N(CCNCCc3ccc(O)c4c3OCC(=O)N4)C3CCCC3)c2)cn1 [Example 18, N-Cyclopentyl-N-(2-(2-(5-hydroxy-3-oxo-3,4-dihydro-2H -benzo[b][1,4]oxazin-8-yl)ethylamino)ethyl)-3-(3-(1-propyl-1H -pyrazol-4-yl)phenethoxy)propanamide Trifluoroacetic Acid Salt] | 0.97 | 10 nM | 1000 nM | > 7940 nM | 
CC(C)[C@@H](C)N(CCNCCc1ccc(O)c2c1OCC(=O)N2)C(=O)CCOCCc1cccc(-c2cnn(C(C)C)c2)c1 [Example 20, (R)—N-(2-(2-(5-Hydroxy-3-oxo-3,4-dihydro-2H-benzo[b][1,4]oxazin-8-yl)ethylamino)ethyl)-3-(3-(1-isopropyl-1H-pyrazol-4-yl)phenethoxy)-N-(3-methylbutan-2-yl)propanamide Trifluoroacetic Acid Salt] | 1.00 | 10 nM | 501 nM | > 10000 nM | 
CCn1cc(-c2cccc(CCOCCC(=O)N(CCNCCc3ccc(O)c4c3OCC(=O)N4)[C@H](C)C(C)C)c2)cn1 [Example 23, (R)-3-(3-(1-Ethyl-1H-pyrazol-4-yl)phenethoxy)-N-(2-(2-(5-hydroxy-3-oxo-3,4-dihydro-2H-benzo[b][1,4]oxazin-8-yl)ethylamino)ethyl)-N-(3-methylbutan-2-yl)propanamide Trifluoroacetic Acid Salt] | 0.98 | 6.31 nM | 794 nM | > 10000 nM | 
O=C1COc2c(CCNCCN(C(=O)CCOCCc3cccc(-c4ncon4)c3)C3CCCCC3)ccc(O)c2N1 [Example 11, 3-(3-(1,2,4-Oxadiazol-3-yl)phenethoxy)-N-cyclohexyl-N-(2-(2-(5-hydroxy-3-oxo-3,4-dihydro-2H-benzo[b][1,4]oxazin-8-yl)ethylamino)ethyl)propanamide Trifluoroacetic Acid Salt] | 0.85 | 10 nM | 631 nM |  | 3980 nM
Cn1cc(-c2cccc(CCOCCC(=O)N(CCNCCc3ccc(O)c4c3OCC(=O)N4)C3CCCCCC3)c2)nn1 [Example 06, N-Cycloheptyl-N-(2-(2-(5-hydroxy-3-oxo-3,4-dihydro-2H-benzo[b][1,4]oxazin-8-yl)ethylamino)ethyl)-3-(3-(1-methyl-1H-1,2,3-triazol-4-yl)phenethoxy)propanamide Trifluoroacetic Acid Salt] | 0.95 | 12.6 nM | 1580 nM |  | 2000 nM
Cn1cc(-c2cccc(CCOCCC(=O)N(CCNCCc3ccc(O)c4c3OCC(=O)N4)C3CCCCC3)c2)cn1 [01 and 02] | 0.96 | 6.31 nM | 1000 nM | > 7940 nM | 
